Test [1] relates to SAM in HCT116 MTAP-deleted cells. Briefly: Cellular assay of target engagement (SAM), LC-MS/MS. The settings on record: Homo sapiens, HCT-116, Table 5a, 72 h, read-out: Cell 72 h SAM Inhibition (MTAP −/−). Type of test: cell-based, human. The gist of the method:
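Target engagement was read as intracellular SAM, measured by LC-MS/MS with d3-SAM as internal standard in methanol/acetic acid extracts. These came from MTAP-deleted HCT116 colon carcinoma cells exposed to inhibitor for 72 hrs.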

For the next test, the system named is HCT116 MTAP+/+. Put plainly: Inhibition of cellular proliferation (Cell Titer Glo), HCT116 MTAP+/+. The format is cell-based. The note with it: Homo sapiens, HCT-116, 96 h, Table 5a, 4 days, read-out: 4 Day Relative Growth Inhibition (MTAP +/+). Put shortly: (§1)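 After 4 days of compound exposure at 37 °C, starting 24 h after plating, growth of the MTAP-wildtype and MTAP-deleted HCT116 pair was measured as ATP luminescence (CellTiter-Glo). The proliferation index was signal minus no-cell blank, divided by blank-corrected 0.2% DMSO control.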
Background: Cellular ATP, detected with luciferase, serves as a proxy for viable cell number.

The target of the next test is T1, MAT2A homodimer (Homo sapiens, UniProt P31153).
T1 construct: inferred from the Ni sepharose purification and imidazole elution; made in house; host or cells: SF9 insect cells, recombinant baculovirus (Bac to Bac, pFASTBAC1)
Briefly: MAT2A biochemical assay (liberated phosphate, PiColorLock Gold). The settings on record: Table 5a; MAT2A biochemical assay; read-out: Enzyme Inhibition. Put shortly: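 Readout is liberated phosphate (PiColorLock Gold), stoichiometric with SAM production, quantified against a potassium phosphate standard curve. Enzyme: recombinant MAT2A homodimer from Sf9, equilibrated 60 min at 25 °C with compound before 60 min reaction with substrate mix containing 500 μM ATP and 400 μM L-methionine.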

For a further test, the system named is HCT116 MTAP-/-. Briefly: Inhibition of cellular proliferation (Cell Titer Glo), HCT116 MTAP-/-. Type of test: cell-based, human. The note with it: Homo sapiens, HCT-116, 96 h, Table 5a, 4 days, read-out: 4 Day Relative Growth Inhibition (MTAP −/−). The gist of the method: as §1

T1 sequence (P31153 whole entry): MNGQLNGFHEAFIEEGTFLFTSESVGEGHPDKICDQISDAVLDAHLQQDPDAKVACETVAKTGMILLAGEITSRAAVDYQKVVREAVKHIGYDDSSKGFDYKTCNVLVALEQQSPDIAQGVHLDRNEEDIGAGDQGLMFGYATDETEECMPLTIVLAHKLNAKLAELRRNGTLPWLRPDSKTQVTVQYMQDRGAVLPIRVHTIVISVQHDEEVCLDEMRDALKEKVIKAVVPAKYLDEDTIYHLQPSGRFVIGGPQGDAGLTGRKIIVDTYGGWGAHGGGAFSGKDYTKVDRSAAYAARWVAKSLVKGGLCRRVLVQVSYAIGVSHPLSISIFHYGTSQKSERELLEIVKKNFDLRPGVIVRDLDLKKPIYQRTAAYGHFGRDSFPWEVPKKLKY

Consider `Cn1cc2cc(N3Cc4ccc(OCC(F)F)nc4N(c4ccc5[nH]cnc5c4)C3=O)ccc2n1` [Example 404, 1-(1H-benzo[d]imidazol-5-yl)-7-(2,2-difluoroethoxy)-3-(2-methyl-2H-indazol-5-yl)-3,4-dihydropyrido[2,3-d]pyrimidin-2(1H)-one], for which the IC50 in test [1] was 100 to 1000 nM; in the test with HCT116 MTAP+/+ it was greater than 1000 nM; at MAT2A homodimer, less than 100 nM; with HCT116 MTAP-/-, 100 to 1000 nM.
Take `[2H]C([2H])([2H])Oc1ccc(N2C(=O)N(c3ccc4nn(C)c(OC([2H])([2H])[2H])c4c3)Cc3ccc(OCC(F)F)nc32)cc1` [Example 103, 7-(2,2-difluoroethoxy)-3-(3-(methoxy-d3)-2-methyl-2H-indazol-5-yl)-1-(4-(methoxy-d3)phenyl)-3,4-dihydropyrido[2,3-d]pyrimidin-2(1H)-one]: the IC50 in test [1] is less than 100 nM; with HCT116 MTAP+/+, greater than 1000 nM; at MAT2A homodimer it was less than 100 nM; with HCT116 MTAP-/- it was less than 100 nM.
Turning to `COc1ccc(N2C(=O)N(c3ccc(=O)n(C)c3)Cc3cnc(NCC(F)(F)F)nc32)cc1` [Example 232, 1-(4-methoxyphenyl)-3-(1-methyl-6-oxo-1,6-dihydropyridin-3-yl)-7-((2,2,2-trifluoroethyl)amino)-3,4-dihydropyrimido[4,5-d]pyrimidin-2(1H)-one], the IC50 in test [1] is greater than 1000 nM; in the test on HCT116 MTAP+/+ it was greater than 1000 nM; on MAT2A homodimer it was 100 to 1000 nM; in the test on HCT116 MTAP-/-, greater than 1000 nM.
With `Cn1cc2cc(N3Cc4ccc(NCC(F)(F)F)nc4N(c4ccc(-c5nc[nH]n5)cc4)C3=O)ccc2n1` [Example 114, 1-(4-(1H-1,2,4-triazol-3-yl)phenyl)-3-(2-methyl-2H-indazol-5-yl)-7-((2,2,2-trifluoroethyl)amino)-3,4-dihydropyrido[2,3-d]pyrimidin-2(1H)-one], the IC50 in test [1] is less than 100 nM; with HCT116 MTAP+/+ it was greater than 1000 nM; at MAT2A homodimer, less than 100 nM; in the test with HCT116 MTAP-/-, less than 100 nM.
For the compound `COc1ccc(N2Cc3ccc(NCC(F)(F)F)nc3N(c3ccc(-c4ncn[nH]4)cc3)C2=O)cc1` [Example 113, 1-(4-(1H-1,2,4-triazol-5-yl)phenyl)-3-(4-methoxyphenyl)-7-((2,2,2-trifluoroethyl)amino)-3,4-dihydropyrido[2,3-d]pyrimidin-2(1H)-one], the IC50 in test [1] was less than 100 nM; in the test on HCT116 MTAP+/+ it was greater than 1000 nM; at MAT2A homodimer, less than 100 nM; with HCT116 MTAP-/-, less than 100 nM.
On to `[2H]C([2H])([2H])Oc1ccc(N2C(=O)N(c3ccc4nc(C)n(C)c4c3)Cc3ccc(OCC(F)F)nc32)cc1` [Example 401, 7-(2,2-difluoroethoxy)-3-(1,2-dimethyl-1H-benzo[d]imidazol-6-yl)-1-(4-(methoxy-d3)phenyl)-3,4-dihydropyrido[2,3-d]pyrimidin-2(1H)-one], for which the IC50 in test [1] is less than 100 nM; with HCT116 MTAP+/+, greater than 1000 nM; at MAT2A homodimer, less than 100 nM; in the test with HCT116 MTAP-/- it was less than 100 nM.
As to `COc1ccc(N2Cc3cnc(NCC(F)(F)F)nc3N(c3ccc(-c4c[nH]cn4)cc3)C2=O)cc1` [Example 196, 1-(4-(1H-imidazol-4-yl)phenyl)-3-(4-methoxyphenyl)-7-((2,2,2-trifluoroethyl)amino)-3,4-dihydropyrimido[4,5-d]pyrimidin-2(1H)-one], the IC50 was 100 to 1000 nM in test [1], greater than 1000 nM in the test with HCT116 MTAP+/+, less than 100 nM at MAT2A homodimer and 100 to 1000 nM in the test with HCT116 MTAP-/-.
With `CCOc1ccc2c(n1)N(c1ccc(-c3nnc[nH]3)cc1)C(=O)N(c1ccc(OC)cc1)C2` [Example 155, 1-(4-(4H-1,2,4-triazol-3-yl)phenyl)-7-ethoxy-3-(4-methoxyphenyl)-3,4-dihydropyrido[2,3-d]pyrimidin-2(1H)-one], the IC50 in test [1] was less than 100 nM; in the test on HCT116 MTAP+/+ it was 100 to 1000 nM; at MAT2A homodimer, less than 100 nM; in the test with HCT116 MTAP-/- it was 100 to 1000 nM.

These data come from patent US20220098203A1 (priority 2018, published 2022).
